# Measurements from patent US4803223A (priority 1985, dated 1989).
# Like-named read-outs stand apart in the source and are kept apart here.
# What was measured:
# [1] = system: Walker carcinosarcoma 256; design: species or system Sprague-Dawley rats (male); conditions: rat, in vivo
# [2] = system: Ehrlich ascites carcinoma; experiment: animal or person; assay type: in vivo, mice (CD2F1-strain Swiss, female); conditions: Mus musculus, ip, 1440 h, read-out: T/C (%)
# P388 leukemia = system: P388 leukemia; design: species or system CDF1-strain mice (male); conditions: mouse, in vivo
structure (smiles),measurement,setting,value
O=C(NCCCl)Nc1ccc(N(CCBr)CCCBr)cc1 [Compound 19],T/C (%),[1]; 50 mg/kg,329%
C=CCCCN(CCCl)c1ccc(NC(=O)NCCCl)cc1 [Compound 25],response vs control in vivo at 100 mg/kg,[2],178%
C#CC(C)N(CCI)c1ccc(NC(=O)NCCF)cc1 (stereo not shown) [Compound 34],response vs control in vivo at 150 mg/kg,[2],199%
CCCOC=CN(CCI)c1ccccc1NC(=O)NCCBr [Compound 30],response vs control in vivo at 200 mg/kg,[2],205%
CCCN(CCCl)c1cccc(NC(=O)NCCBr)c1 [Compound 11],response vs control in vivo at 100 mg/kg,[2],203%
C#CN(CCCl)c1ccc(NC(=O)NCCBr)cc1 [Compound 17],response vs control in vivo at 100 mg/kg,[2],294%
CN(CCI)c1cccc(NC(=O)NCCI)c1 [Compound 15],T/C (%),[1]; 150 mg/kg,220%
CC(C)C=CCN(CCCl)c1ccc(NC(=O)NCCBr)cc1 [Compound 26],T/C (%),[1]; 200 mg/kg,216%
N#CCCN(CCCl)c1ccc(NC(=O)NCCI)cc1 [Compound 22],T/C (%),[1]; 50 mg/kg,256%
CC#CCCN(CCBr)c1ccc(NC(=O)NCCCl)cc1 [Compound 35],response vs control in vivo at 150 mg/kg,[2],191%
C=CCC(CBr)N(CCBr)c1ccc(NC(=O)NCCBr)cc1 (stereo not shown) [Compound 28],T/C (%),[1]; 25 mg/kg,182%
CCN(CCCl)c1ccc(NC(=O)NCCCl)cc1 [Compound 10],response vs control in vivo at 100 mg/kg,[2],222%
O=C(NCCF)Nc1ccc(N(CCCl)CCOc2ccccc2)cc1 [Compound 23],T/C (%),P388 leukemia; 50 mg/kg,156%
C#CCCCCN(CCCl)c1ccc(NC(=O)NCCCl)cc1 [Compound 36],response vs control in vivo at 100 mg/kg,[2],186%
COCCN(CCCl)c1ccc(NC(=O)NCCCl)cc1 [Compound 20],response vs control in vivo at 50 mg/kg,[2],281%
O=C(NCCCl)Nc1ccc(N(CCF)CCC=CCOc2ccccc2)cc1 [Compound 32],T/C (%),P388 leukemia; 50 mg/kg,150%
CC(C)N(CCBr)c1ccc(NC(=O)NCCCl)cc1 [Compound 13],T/C (%),P388 leukemia; 100 mg/kg,134%
O=C(NCCCl)Nc1cccc(N(CC=CCCl)CCCl)c1 [Compound 27],response vs control in vivo at 50 mg/kg,[2],246%
CC=CCN(CCCl)c1cccc(NC(=O)NCCCl)c1 [Compound 24],response vs control in vivo at 150 mg/kg,[2],234%
C=CCN(CCCl)c1ccc(NC(=O)NCCCl)cc1 [Compound 16],response vs control in vivo at 150 mg/kg,[2],235%
CN(CCBr)c1ccc(NC(=O)NCCBr)cc1 [Compound 12],T/C (%),[1]; 50 mg/kg,329%
CCCCCCN(CCCl)c1ccc(NC(=O)NCCF)cc1 [Compound 14],response vs control in vivo at 50 mg/kg,[2],275%
CCSCCN(CCCl)c1ccc(NC(=O)NCCBr)cc1 [Compound 21],T/C (%),[1]; 100 mg/kg,207%
C#CCN(CCCl)c1cccc(NC(=O)NCCCl)c1 [Compound 33],T/C (%),[1]; 200 mg/kg,169%
CSC=CCN(CCCl)c1ccc(NC(=O)NCCCl)cc1 [Compound 31],response vs control in vivo at 150 mg/kg,[2],184%
O=C(NCCF)Nc1ccc(N(CCF)CCF)cc1 [Compound 8],T/C (%),P388 leukemia; 25 mg/kg,134%
C=CC(C#N)N(CCCl)c1ccc(NC(=O)NCCCl)cc1 (stereo not shown) [Compound 29],T/C (%),P388 leukemia; 25 mg/kg,187%
O=C(NCCCl)Nc1ccc(N(CCl)CCCl)cc1 [Compound 18],T/C (%),P388 leukemia; 25 mg/kg,154%
